Assay results taken from patent publication EP1724268A1, “COMPOUND HAVING TGF-BETA INHIBITORY ACTIVITY AND PHARMACEUTICAL COMPOSITION CONTAINING SAME” (KIRIN BEER KABUSHIKI KAISHA, priority 2004, dated 2005).

Tested on: TGFβ signal
Experiment: TGFβ signal inhibitory activity, (SBE)4-Luc reporter in A549 cells (Test Examples 1A and 1B)
Format: cell-based, human
Conditions: Homo sapiens, A549, Reference Examples, Table 1B, read-out: TGFβ inhibition rate, %; for inhibition at 3 µM: test compound 3 µM; for inhibition at 10 µM: test compound 10 µM
How it was run: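 Compounds at 3 µM and 10 µM (some 1 µM) were added with 2 ng/ml TGFβ-1 to A549 cells stably expressing an SBE-driven luciferase, then cultured 4 hr. Chemiluminescent luciferase signal gave % inhibition versus TGFβ-alone and no-TGFβ controls.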

SMILES	inhibition at 3 µM [%]	inhibition at 10 µM [%]
CCOC(=O)c1cc(-c2ccc(F)cc2F)ccc1Oc1ccnc2cc(OC)c(OC)cc12 [Compound r89]	20	63
CCOC(=O)c1cc(-n2cccc2)ccc1Oc1ccnc2cc(OC)c(OC)cc12 [Compound r90]	54	95
CCOC(=O)c1cc(OC)ccc1Oc1ccnc2cc(OC)c(OC)cc12 [Compound r91]	96	100
CCOC(=O)c1c(C)cccc1Oc1ccnc2cc(OC)c(OC)cc12 [Compound r92]	25	82
COc1cc2nccc(Oc3ccccc3C(=O)OC(C)C)c2cc1OC [Compound r93]	44	88
CCCOC(=O)c1ccccc1Oc1ccnc2cc(OC)c(OC)cc12 [Compound r94]	39	97
CCCOC(=O)c1cc(C(C)=O)ccc1Oc1ccnc2cc(OC)c(OC)cc12 [Compound r95]	67	96
CCCOC(=O)c1cc(-c2ccc(F)cc2F)ccc1Oc1ccnc2cc(OC)c(OC)cc12 [Compound r96]	19	65
COc1cc2nccc(Oc3ccccc3C(=O)OCC(C)C)c2cc1OC [Compound r97]	14	92
CCCCOC(=O)c1ccccc1Oc1ccnc2cc(OC)c(OC)cc12 [Compound r98]	4	93
COc1cc2nccc(Oc3ccccc3C(=O)OCCC(C)C)c2cc1OC [Compound r99]	7	92
CC/C=C\CCOC(=O)c1ccccc1Oc1ccnc2cc(OC)c(OC)cc12 [Compound r100]	0	82
CCCCC(CC)COC(=O)c1ccccc1Oc1ccnc2cc(OC)c(OC)cc12 (stereo not shown) [Compound r101]	0	64
COc1cc2nccc(Oc3cc4ccccc4cc3C(=O)Oc3ccccc3)c2cc1OC [Compound r102]	33	95
COc1cc2nccc(Oc3ccc(Cl)cc3C(=O)Nc3ccccc3)c2cc1OC [Compound r105]	17	88
COc1cc2nccc(Oc3ccc(Cl)cc3C(N)=O)c2cc1OC [Compound r106]	9	80
COc1cc2nccc(Oc3ccc(Cl)cc3C(=O)Nc3ccc(Cl)c(Cl)c3)c2cc1OC [Compound r107]	0	82
COc1cc2nccc(Oc3ccc(Br)cc3C(=O)Nc3ccc(Cl)cc3)c2cc1OC [Compound r108]	0	73
CNC(=O)c1cc(OC)ccc1Oc1ccnc2cc(OC)c(OC)cc12 [Compound r110]	55	93
COc1ccc(Oc2ccnc3cc(OC)c(OC)cc23)c(C(=O)NC(C)C)c1 [Compound r111]	29	92
COc1ccc(Oc2ccnc3cc(OC)c(OC)cc23)c(C(=O)NC2CCCCC2)c1 [Compound r112]	44	91
COc1cc2nccc(Oc3c(Br)cc(Br)cc3C(=O)Nc3ccc(Br)cc3)c2cc1OC [Compound r113]	0	96

SMILES	inhibition at 3 µM [%]	inhibition at 10 µM [%]
COc1cc2nccc(Oc3ccc(C)nc3)c2cc1OC [Compound r115, 4-[(6-Methyl-3-pyridyl)oxy]-6,7-dimethoxyquinoline]	74	97
COc1cc2nccc(Oc3ccc(C)nc3C(C)=O)c2cc1OC [Compound r117, 1-{[3-(6,7-Dimethoxy-4-quinolyl)oxy]-6-methyl-2-pyridyl}-1-ethanone]	84	98
COc1ccc(Oc2ccnc3cc(OC(=O)N4CCOCC4)c(OC)cc23)c(C(C)=O)c1 [Compound r118, 4-(2-Acetyl-4-methoxyphenoxy)-6-methoxy-7-quinolyl 4-morpholine carboxylate]	97	100
COc1ccc(Oc2ccnc3cc(OCCCCl)c(OC)cc23)c(C(C)=O)c1 [Compound r121]	100	100
CCN(CC)CCOc1cc2nccc(Oc3ccc(C)cc3C(=O)c3ccccc3)c2cc1OC [Compound r125]	98	100
COc1cc2c(Oc3ccc(C)cc3C(=O)c3ccccc3)ccnc2cc1OCCN1CCC(CO)CC1 [Compound r126]	100	100
COc1cc2c(Oc3ccc(C)cc3C(=O)c3ccccc3)ccnc2cc1OCCN1CCC(N2CCCC2)CC1 [Compound r127]	99	100
COc1cc2c(Oc3ccc(C)cc3C(=O)c3ccccc3)ccnc2cc1OCCN1CCNCC1 [Compound r128]	100	100
COc1cc2c(Oc3ccc(C)cc3C(=O)c3ccccc3)ccnc2cc1OCCN1CCN(C)CC1 [Compound r129]	100	100
COc1cc2c(Oc3ccc(C)cc3C(=O)c3ccccc3)ccnc2cc1OCCN1CCOCC1 [Compound r130]	90	100
COc1cc2c(Oc3ccc(C)cc3C(=O)c3ccccc3)ccnc2cc1OCCn1ccnc1 [Compound r131]	96	100
COc1cc2c(Oc3ccc(C)cc3C(=O)c3ccccc3)ccnc2cc1OCCCCl [Compound r132]	72	99
COc1cc2c(Oc3ccc(C)cc3C(=O)c3ccccc3)ccnc2cc1OCCCNCCO [Compound r133]	100	100
CCN(CC)CCCOc1cc2nccc(Oc3ccc(C)cc3C(=O)c3ccccc3)c2cc1OC [Compound r134]	100	100
COc1cc2c(Oc3ccc(C)cc3C(=O)c3ccccc3)ccnc2cc1OCCCN1CCC(N2CCCC2)CC1 [Compound r136]	90	100
COc1cc2c(Oc3ccc(C)cc3C(=O)c3ccccc3)ccnc2cc1OCCCCCl [Compound r141]	55	89
COc1cc2c(Oc3ccc(C)cc3C(=O)c3ccccc3)ccnc2cc1OCCCCN1CCC(CO)CC1 [Compound r144]	99	100
COc1cc2c(Oc3ccc(C)cc3C(=O)c3ccccc3)ccnc2cc1OCCCCN1CCC(N2CCCC2)CC1 [Compound r145]	87	100
COc1cc2c(Oc3ccc(C)cc3C(=O)c3ccccc3)ccnc2cc1OCCCCN1CCC(N2CCCCC2)CC1 [Compound r146]	64	100
COc1cc2c(Oc3ccc(C)cc3C(=O)c3ccccc3)ccnc2cc1OCCCCN1CCNCC1 [Compound r147]	98	100
COc1cc2c(Oc3ccc(C)cc3C(=O)c3ccccc3)ccnc2cc1OCCCCN1CCN(C)CC1 [Compound r148]	99	100
COc1cc2c(Oc3ccc(C)cc3C(=O)c3ccccc3)ccnc2cc1OCCCCN1CCOCC1 [Compound r149]	96	100
